Measurements reported in patent US20100227907A1, “Method of Treating Pain by Using Opioids and CAMKIV Inhibitors” (priority 2005, published 2010).

Columns and labels:
[1] = tested on: CREB activity in HEK293 cells expressing CaMKIV; assay: Ionomycin stimulation of CREB activity (luciferase reporter) in HEK293 cells expressing CaMKIV; format: cell-based; settings: 5 μM ionomycin, n=4 wells, p<0.0001
Experimental: (§1) HEK293 cells were seeded into 96-well plates. The next day, cells were cotransfected with the CaMKIV construct, pGL3-CRE-firefly luciferase and pGL3-CMV-Renilla luciferase constructs using Lipofectamine 2000 reagent (Invitrogen, CA) according to the manufacturer's recommendation. The following day, cells were treated with fresh medium containing DMSO as vehicle control or 5 μM ionomycin (Sigma, Mo.) in the presence or absence of KN62 or KN93 (Sigma, MO) at serial concentrations. Cells were harvested 16 h later. Luciferase activity was assayed with cell lysis by using the dual-luciferase reporter assay system (Promega, WI) according to the manufacturer's protocol.
The dose-dependent inhibitory effect of KN62 and KN93 on CaMKIV transiently expressed in HEK293 cells was determined. CaMKIV can activate CREB and stimulate CREB-mediated transcription through the direct phosphorylation of CREB on Ser-133. To measure the CaMKIV activity by CREB activity assay, the CaMKIV expression plasmids and a CREB luciferase reporter system were cotransfected into HEK293 cells in this study. The calcium ionophore ionomycin treatment can lead to an increase in intracellular Ca^2+ and Ca^2+/CaM levels, which influence CaMKIV activity in cells. Ionomycin (5 μM) can dramatically increase CREB activity in HEK293 cells expressing CaMKIV. […]

[2] = biological target: T1, CaMKIV transiently expressed in HEK293 cells (Homo sapiens, UniProt Q16566); assay: CREB luciferase reporter assay of CaMKIV activity in ionomycin-treated HEK293 cells transiently expressing CaMKIV; format: cell-based; settings: 5 μM ionomycin, n=4 wells; for CREB activity, % of the control level: HEK293 expressing CaMKIV; for IC50: HEK293 transiently expressing CaMKIV, read-out: IC50 for inhibition of CaMKIV (CREB activity)
T1 construct: expressed in transfected cells; host or cells: HEK293
T1 sequence (Q16566 1-473): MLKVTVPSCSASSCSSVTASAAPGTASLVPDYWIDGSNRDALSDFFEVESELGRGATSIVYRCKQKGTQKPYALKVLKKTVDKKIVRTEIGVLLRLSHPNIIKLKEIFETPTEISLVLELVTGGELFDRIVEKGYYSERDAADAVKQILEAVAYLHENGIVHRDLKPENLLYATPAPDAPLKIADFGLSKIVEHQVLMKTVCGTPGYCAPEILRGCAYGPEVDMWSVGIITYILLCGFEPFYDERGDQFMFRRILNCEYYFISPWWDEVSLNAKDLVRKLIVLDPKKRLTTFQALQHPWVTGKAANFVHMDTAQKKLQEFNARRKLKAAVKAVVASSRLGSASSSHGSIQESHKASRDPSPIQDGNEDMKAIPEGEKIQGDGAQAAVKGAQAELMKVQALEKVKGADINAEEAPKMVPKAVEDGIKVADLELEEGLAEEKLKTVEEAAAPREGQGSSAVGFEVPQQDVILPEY
Experimental: as §1
The dose-dependent inhibitory effect of KN62 and KN93 on CaMKIV transiently expressed in HEK293 cells was determined. CaMKIV can activate CREB and stimulate CREB-mediated transcription through the direct phosphorylation of CREB on Ser-133. To measure the CaMKIV activity by CREB activity assay, the CaMKIV expression plasmids and a CREB luciferase reporter system were cotransfected into HEK293 cells in this study. The calcium ionophore ionomycin treatment can lead to an increase in intracellular Ca^2+ and Ca^2+/CaM levels, which influence CaMKIV activity in cells. Ionomycin (5 μM) can dramatically increase CREB activity in HEK293 cells expressing CaMKIV. The CREB activity is 5.5±0.2 times that of unstimulated cells (p<0.0001, compared to the unstimulated cells, n=4 wells, FIG. 8A).

[3] = tested on: pCREB in lamina I-II of the dorsal horn; assay: pCREB immunostaining in spinal cord after chronic morphine; format: in vivo, mouse; settings: chronic morphine vs saline; both CaMKIV KO and wild-type mice; p<0.001
Experimental: Spinal cord slices at the lumbar region were prepared using standard histological methods. Slices were incubated with rabbit anti-pCREB IgG (1:250) (Calbiochem) or rabbit anti-MOR IgG (1:500) (ImmunoStar Incorporated) at 4° C. overnight. Followed by donkey anti-rabbit IgG conjugated with Alexa 488 (1:500) (Molecular Probes) for one hour at room temperature. Measurements were made from at least three randomly selected non-contiguous sections in each mouse (3-4 mice per treatment group), observed from coded slides and averaged so that each animal has a mean value for regional immunoreactivity. The total number and density of positive cells were measured in dorsal horn layers I-II and ventral horn layers VI-IX. All data were expressed as a ratio between cell number or density and unit area. Images were obtained with an Olympus microscope. Data were analyzed with ImagePro software (Media-Cybrenetics,).

[4] = tested on: pCREB expression in the spinal cord; assay: pCREB expression in spinal cord after chronic morphine (western blot); format: in vivo, mouse; settings: chronic morphine 10 mg/kg s.c. daily for seven days
Experimental: Open field locomotor activity was recorded for 1 hr after injection followed by determination of hot plate and tail flick response latencies.
Spinal cords were dounce-homogenized (18 strokes) in 10 volumes of 10 mM Tris-Cl (pH 7.4), 320 mM Sucrose, and 1% SDS. The tissue homogenates were centrifuged at 21,000×g at 4° C. for 5 min. Equal amounts of protein from tissue samples were separated by 4-12% gradient SDS-PAGE (Invitrogen), followed by Western blotting with anti-MOR-1 (1:1000), anti-pCREB (1:1000) (Santa Cruz Biotechnology) or anti-phosphoserine antibody (for immunoprecipitated samples, 1:1000) (Sigma) followed by revelation with ECL (Amersham). Membranes (BioTrace PVDF, Pall Co.) were routinely stripped and re-probed with a monoclonal antibody for actin (1:5000, Sigma) blotting to ensure equal protein loading.

[5] = tested on: substantia gelatiosa (SG) neurons in lamina II of the dorsal horn; assay: Whole-cell patch clamp recording of sIPSCs in spinal cord slices; format: cell-based, mouse
Experimental: Postnatal mice (12-19 days old) were anesthetized with 1-2% halothane and the thoracic and lumbar spinal cord were dissected out and put into pre-equilibrated artificial cerebrospinal solution fluid (ACSF) at 1-4° C. The spinal cord was placed into the shallow groove of an agar block, and several drops of 20% gelatin were placed on the low-thoracic and high-lumbar segment to half-embed the spinal cord. The agar block, together with the half-embedded spinal cord, was glued on the stage of a vibratome with cyanoacrylate adhesive, and was immersed in the ice-cold ACSF. Then, transverse slices of the lumber spinal cord (350 μm) were prepared. Slices were transferred to a room temperature submerged recovery chamber with oxygenated (95% O2 and 5% CO2) solution containing (in mM): NaCl, 124; NaHCO3, 25; KCl, 4.4; KH2PO4, 1; CaCl2, 2; MgSO4, 2; glucose, 10. After one hr recovery, slices were placed in a recording chamber on the stage of an Axioskop 2FS microscope (Zeiss) equipped with infrared DIC optics for patch clamp recordings. Substantia gelatiosa (SG) could be identified as a translucent band capping the dorsal part of the gray matter under the microscope. Spontaneous inhibitory postsynaptic currents (sIPSCs) were recorded with an Axon 200B amplifier (Axon Instruments, CA). Recording electrodes (3-5 MΩ) contained a pipette solution composed of (in mM): Cs-gluconate, 120; NaCl, 5; MgCl2 1; EGTA, 0.5; Mg-ATP, 2; Na3GTP, 0.1; HEPES, 10; pH 7.2; 280-300 mOsmol. Access resistance was 15-30 MΩ and was monitored throughout the experiment. Data were discarded if access resistance changed more than 15% during an experiment. The membrane potential was held at […] throughout the experiment. A holding potential of +10 mV was used to record spontaneous inhibitory postsynaptic currents (sIPSCs).

mouse CaMKIV = assay: siRNA knock-down of CaMKIV expression in cultured cortical neurons (western blot); format: cell-based; settings: 30 nM siRNA, 48 h after transfection, n=3 experiments
Experimental: Cortical neurons were prepared from postnatal day 0 (P0) mice. All procedures were reviewed and approved by the Institutional Animal Care and Use Committee at University of Toronto, in accordance with the guidelines of the Canadian Council on Animal Care. The Cerebral cortexes were dissected, minced, and trypsinized for 15 min using 0.125% trypsin (Invitrogen, CA). Cells were seeded at the density of 4˜5×10^5 cells/cm^2 onto 60 mm dishes or 96-well plates precoated with 50 μg/ml poly-D-lysine (Sigma, Mo.) in water, and grown in Neurobasal-A medium (Invitrogen, CA) supplemented with B27 and GlutaMax (Invitrogen, CA). The cultures were incubated at 37° C. in 95% air, 5% carbon dioxide with 95% humidity.
sequence 1: sense 5′-[…]tt-3′, antisense 5′-[…]tt-3′ and sequence 2: sense 5′-[…]tt-3′, antisense 5′-[…]tt-3′, respectively (Ambion, Tex.). The annealed siRNA was reconstituted at the concentration of 100 μM for transfection. […] Cells were harvested and analyzed 48 h after transfection.
The cultured cortical neurons were harvested and homogenized in lysis buffer containing proteinase inhibitor cocktail (Sigma, Mo.). Protein was quantified by Bradford assay, and electrophoresis of equal amounts of total protein was performed on SDS-polyacrylamide gels. […] The density of immunoblots was measured using NIH ImageJ software.

| Molecule | CREB activity, % of the control level ([2]; 0.01 μM inhibitor) [%] | CREB activity, % of the control level ([2]; 0.1 μM inhibitor) [%] | CREB activity, % of the control level ([2]; 1.0 μM inhibitor) [%] | CREB activity, % of the control level ([2]; 10 μM inhibitor) [%] | CREB activity, % of the control level ([2]; 50 μM inhibitor) [%] | CREB activity, % of the control level ([2]; 100 μM inhibitor) [%] | IC50 [2] [nM] | other results |
| --- | --- | --- | --- | --- | --- | --- | --- | --- |
| C[C@H](CCC(=O)O)C[C@H](C)C[C@H](C)C(=O)/C=C(\O)[C@H](C)C[C@H](C)C/C=C/[C@@H](C)[C@@H](O)[C@@H](C)[C@@H](O)C[C@@H]1CC[C@@](C)([C@H]2CC[C@@](C)([C@@H](C)O)O2)O1 [Ionomycin, ionomycin] |  |  |  |  |  |  |  | CREB activity, times that of unstimulated cells [1]: 5.5±0.2 times |
| CN([C@@H](Cc1ccc(OS(=O)(=O)c2cccc3cnccc23)cc1)C(=O)N1CCN(c2ccccc2)CC1)S(=O)(=O)c1cccc2cnccc12 [KN62, 4-[(25)-2-[(5-isoquinolinylsulfonyl)methylamino]-3-oxo-3-(4-phrenyl-1-piperazinyl)propyl]phenyl isoquinolinesulfonic acid ester] | 98.4±0.8 | 85.3±1.2 | 55.5±2.5 | 11.5±2.6 | 1.3±2.9 | 1.2±1.4 | 1060 |  |
| COc1ccc(S(=O)(=O)N(CCO)c2ccccc2CN(C)CC=Cc2ccc(Cl)cc2)cc1 [KN93, N-[2-[[[3-(4-Chlorophenyl)-2-propenyl]methylamino]methyl]phenyl]-N-(2-hydroxyethyl)-4-methoxybenzenesulphonamide] | 93.1±0.9 | 77.7±2.5 | 40.8±2.7 | 5.3±1.5 | 1.3±0.7 | 1.1±0.9 | 580 |  |
| CN1CC[C@]23c4c5ccc(O)c4O[C@H]2[C@@H](O)C=C[C@H]3[C@H]1C5 [morphine] |  |  |  |  |  |  |  | pCREB in layer I and II of the dorsal horn (immunostaining) [3]: significantly increased; pCREB expression in spinal cord (western blot) ([4]; CaMKIV KO mice): absent; pCREB expression in spinal cord (western blot) ([4]; WT mice, p<0.001): significantly increased; decrease of the frequency of sIPSCs ([5]; acutely applied morphine, CaMKIV KO mice, n=6): 66.2±4.0%; decrease of the frequency of sIPSCs ([5]; acutely applied morphine, WT mice, n=7): 68.9±10.4%; decrease of the frequency of sIPSCs ([5]; slices pre-incubated in morphine at least 1 hour, CaMKIV KO mice, n=9): 55.7±6.9%; decrease of sIPSCs (in words) ([5]; slices pre-incubated in morphine at least 1 hour, WT mice, n=8, p>0.05): did not decrease |
| sequence 1: siRNA for mouse CaMKIV: sense 5′-GCAUGAUAUGCACUAAUAGtt-3′, antisense 5′-CUAUUAGUGCAUAUCAUGCtt-3′ (sense GCAUGAUAUGCACUAAUAGTT; antisense CUAUUAGUGCAUAUCAUGCTT; chemistry not given here) |  |  |  |  |  |  |  | expression level of CaMKIV, % of the control (mouse CaMKIV): 50.6±5.9% |
| sequence 2: siRNA for mouse CaMKIV: sense 5′-CGGCUGACUACAUUUCAAGtt-3′, antisense 5′-CUUGAAAUGUAGUCAGCCGtt-3′ (sense CGGCUGACUACAUUUCAAGTT; antisense CUUGAAAUGUAGUCAGCCGTT; chemistry not given here) |  |  |  |  |  |  |  | knock down of the expression of CaMKIV (in words) (mouse CaMKIV): could not knock down |
